Reference: EP4722207A1, “OXOISOINDOLINYL-SUBSTITUTED TETRAHYDROPYRIMIDINEDIONE DERIVATIVE AND USE THEREOF” (Gluetacs Therapeutics (Shanghai) Co., Ltd., priority 2023, dated 2024)

Key:
Assay type in all cases: cell-based
IKZF3 = biological target: T1, IKZF3 (Homo sapiens, UniProt Q96SW2+Q9UKT9); assay: Western-blot assay, substrate protein degradation in hPBMCs: IKZF3; details: for IKZF3 substrate protein remaining %: compounds at 50 nM and 500 nM, 24 hours; for substrate protein remaining % IKZF3: 24 hours of compound treatment, 50 nM and 500 nM
T1 construct: effects of the compounds of the present disclosure on the expression of target proteins in cells; endogenous in cells; host or cells: human PBMCs (hPBMCs)
T1 sequence (Q9UKT9 whole entry): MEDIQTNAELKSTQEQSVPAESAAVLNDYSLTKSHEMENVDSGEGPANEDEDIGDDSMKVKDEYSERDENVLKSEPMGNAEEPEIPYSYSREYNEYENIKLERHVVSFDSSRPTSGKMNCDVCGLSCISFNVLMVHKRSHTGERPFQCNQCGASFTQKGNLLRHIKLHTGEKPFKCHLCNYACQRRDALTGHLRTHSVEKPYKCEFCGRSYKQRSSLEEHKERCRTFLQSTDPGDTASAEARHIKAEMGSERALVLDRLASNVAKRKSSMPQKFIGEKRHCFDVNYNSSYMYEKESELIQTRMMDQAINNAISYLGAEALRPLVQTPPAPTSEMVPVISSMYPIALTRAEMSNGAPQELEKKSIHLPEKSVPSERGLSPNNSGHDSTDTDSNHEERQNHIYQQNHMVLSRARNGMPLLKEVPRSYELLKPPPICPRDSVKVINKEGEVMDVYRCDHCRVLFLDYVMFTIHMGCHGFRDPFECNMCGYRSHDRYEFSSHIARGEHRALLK
T1 sequence (Q96SW2 whole entry): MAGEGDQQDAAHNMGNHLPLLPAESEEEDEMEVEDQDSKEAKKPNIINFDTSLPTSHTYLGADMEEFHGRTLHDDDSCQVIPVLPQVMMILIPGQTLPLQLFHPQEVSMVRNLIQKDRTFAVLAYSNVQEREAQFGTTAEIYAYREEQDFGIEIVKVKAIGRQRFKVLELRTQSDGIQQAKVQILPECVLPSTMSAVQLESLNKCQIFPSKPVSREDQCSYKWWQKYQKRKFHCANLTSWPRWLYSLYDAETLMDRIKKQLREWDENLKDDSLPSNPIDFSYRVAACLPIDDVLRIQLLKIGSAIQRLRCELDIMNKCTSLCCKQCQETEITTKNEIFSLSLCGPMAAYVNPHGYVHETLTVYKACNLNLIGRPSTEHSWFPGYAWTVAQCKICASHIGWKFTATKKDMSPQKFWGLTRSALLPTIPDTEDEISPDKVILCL
T1 sequence (Q16531 whole entry partner): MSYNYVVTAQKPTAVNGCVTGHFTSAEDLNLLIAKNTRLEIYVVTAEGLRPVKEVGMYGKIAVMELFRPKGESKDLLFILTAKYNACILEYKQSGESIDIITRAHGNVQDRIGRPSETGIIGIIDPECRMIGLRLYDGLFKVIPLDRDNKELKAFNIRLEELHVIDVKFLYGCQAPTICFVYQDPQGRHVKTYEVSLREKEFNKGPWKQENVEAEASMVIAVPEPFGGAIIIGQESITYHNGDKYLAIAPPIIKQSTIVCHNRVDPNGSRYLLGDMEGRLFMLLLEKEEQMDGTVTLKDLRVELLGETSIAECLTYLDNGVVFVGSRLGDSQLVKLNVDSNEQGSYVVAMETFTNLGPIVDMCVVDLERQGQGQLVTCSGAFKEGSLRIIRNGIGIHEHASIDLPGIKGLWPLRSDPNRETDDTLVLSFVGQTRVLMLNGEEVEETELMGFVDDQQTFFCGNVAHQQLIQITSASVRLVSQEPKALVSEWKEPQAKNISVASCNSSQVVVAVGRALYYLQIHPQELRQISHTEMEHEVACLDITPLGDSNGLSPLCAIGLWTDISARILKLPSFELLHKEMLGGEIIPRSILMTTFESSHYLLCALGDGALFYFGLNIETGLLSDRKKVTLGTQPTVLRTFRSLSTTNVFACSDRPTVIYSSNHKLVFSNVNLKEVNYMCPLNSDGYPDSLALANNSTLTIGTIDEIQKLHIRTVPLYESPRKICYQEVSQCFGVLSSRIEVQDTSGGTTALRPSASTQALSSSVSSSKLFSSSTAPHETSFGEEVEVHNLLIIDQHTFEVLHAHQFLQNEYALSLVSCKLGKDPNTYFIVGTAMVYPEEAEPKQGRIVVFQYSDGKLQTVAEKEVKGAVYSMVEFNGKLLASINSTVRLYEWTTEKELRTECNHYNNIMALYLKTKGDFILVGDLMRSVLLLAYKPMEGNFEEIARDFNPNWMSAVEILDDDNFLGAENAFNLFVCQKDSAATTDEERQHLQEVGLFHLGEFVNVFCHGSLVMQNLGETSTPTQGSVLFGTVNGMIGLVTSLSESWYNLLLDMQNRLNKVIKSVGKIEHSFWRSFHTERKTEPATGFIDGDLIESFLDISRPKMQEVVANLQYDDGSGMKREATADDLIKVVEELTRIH

IKZF2 = biological target: T2, IKZF2 (Homo sapiens, UniProt Q96SW2+Q9UKS7); assay: Western-blot assay, substrate protein degradation in hPBMCs: IKZF2; details: for IKZF2 substrate protein remaining %: compounds at 50 nM and 500 nM, 24 hours; for substrate protein remaining % IKZF2: 24 hours of compound treatment, 50 nM and 500 nM
T2 construct: effects of the compounds of the present disclosure on the expression of target proteins in cells; endogenous in cells; host or cells: human PBMCs (hPBMCs)
T2 sequence (Q9UKS7 whole entry): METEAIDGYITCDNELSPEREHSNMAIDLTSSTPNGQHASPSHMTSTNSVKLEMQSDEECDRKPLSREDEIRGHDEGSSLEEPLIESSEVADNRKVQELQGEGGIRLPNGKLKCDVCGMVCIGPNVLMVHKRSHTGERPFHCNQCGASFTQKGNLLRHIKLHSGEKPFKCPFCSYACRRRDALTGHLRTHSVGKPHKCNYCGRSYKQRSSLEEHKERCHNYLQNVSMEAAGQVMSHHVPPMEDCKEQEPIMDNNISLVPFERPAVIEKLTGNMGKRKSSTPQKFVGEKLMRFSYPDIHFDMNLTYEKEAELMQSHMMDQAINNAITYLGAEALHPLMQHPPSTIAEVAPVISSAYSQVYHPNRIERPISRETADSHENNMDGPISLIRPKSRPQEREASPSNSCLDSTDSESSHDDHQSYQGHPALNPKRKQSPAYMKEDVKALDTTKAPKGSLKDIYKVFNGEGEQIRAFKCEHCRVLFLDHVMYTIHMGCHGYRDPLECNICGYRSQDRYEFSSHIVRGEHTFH
T2 sequence (Q96SW2 whole entry): as the sequence (Q96SW2 whole entry) above
T2 sequence (Q16531 whole entry partner): as the sequence (Q16531 whole entry partner) above

GSPT1 = biological target: T3, GSPT1 (Homo sapiens, UniProt P15170+Q96SW2); assay: Western-blot assay, substrate protein degradation in hPBMCs: GSPT1; details: for GSPT1 substrate protein remaining %: compounds at 50 nM and 500 nM, 24 hours; for substrate protein remaining % GSPT1: 24 hours of compound treatment, 50 nM and 500 nM
T3 construct: effects of the compounds of the present disclosure on the expression of target proteins in cells; endogenous in cells; host or cells: human PBMCs (hPBMCs)
T3 sequence (P15170 whole entry): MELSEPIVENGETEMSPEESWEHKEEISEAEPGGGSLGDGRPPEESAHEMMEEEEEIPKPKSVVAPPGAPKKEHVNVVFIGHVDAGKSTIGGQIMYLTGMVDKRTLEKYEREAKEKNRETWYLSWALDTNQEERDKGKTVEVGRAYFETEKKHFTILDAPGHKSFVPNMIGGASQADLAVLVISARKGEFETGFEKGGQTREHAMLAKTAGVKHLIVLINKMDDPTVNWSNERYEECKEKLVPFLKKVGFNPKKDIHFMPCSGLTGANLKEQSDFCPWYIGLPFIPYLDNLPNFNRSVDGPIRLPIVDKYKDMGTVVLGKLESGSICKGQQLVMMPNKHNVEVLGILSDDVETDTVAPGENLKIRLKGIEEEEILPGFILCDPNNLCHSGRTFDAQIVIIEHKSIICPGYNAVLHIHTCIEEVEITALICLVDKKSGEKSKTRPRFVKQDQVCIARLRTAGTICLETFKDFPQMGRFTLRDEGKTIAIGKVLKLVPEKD
T3 sequence (Q96SW2 whole entry): as the sequence (Q96SW2 whole entry) above
T3 sequence (Q16531 whole entry partner): as the sequence (Q16531 whole entry partner) above

IKZF1 = biological target: T4, IKZF1 (Homo sapiens, UniProt Q13422+Q96SW2); assay: Western-blot assay, substrate protein degradation in hPBMCs: IKZF1; details: for IKZF1 substrate protein remaining %: compounds at 50 nM and 500 nM, 24 hours; for substrate protein remaining % IKZF1: 24 hours of compound treatment, 50 nM and 500 nM
T4 construct: effects of the compounds of the present disclosure on the expression of target proteins in cells; endogenous in cells; host or cells: human PBMCs (hPBMCs)
T4 sequence (Q13422 whole entry): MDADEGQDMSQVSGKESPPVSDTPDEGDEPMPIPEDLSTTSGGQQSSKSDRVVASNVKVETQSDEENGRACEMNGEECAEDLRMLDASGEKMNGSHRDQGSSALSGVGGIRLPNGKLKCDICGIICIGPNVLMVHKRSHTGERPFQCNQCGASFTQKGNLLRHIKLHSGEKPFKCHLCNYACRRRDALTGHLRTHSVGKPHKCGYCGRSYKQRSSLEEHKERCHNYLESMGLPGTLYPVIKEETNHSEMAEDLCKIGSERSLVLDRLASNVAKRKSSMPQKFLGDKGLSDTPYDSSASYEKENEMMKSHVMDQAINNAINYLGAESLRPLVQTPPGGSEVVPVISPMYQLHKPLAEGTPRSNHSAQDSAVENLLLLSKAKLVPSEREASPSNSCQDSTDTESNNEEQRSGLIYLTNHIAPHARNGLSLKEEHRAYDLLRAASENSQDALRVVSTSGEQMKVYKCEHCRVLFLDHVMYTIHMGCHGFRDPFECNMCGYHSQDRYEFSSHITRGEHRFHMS
T4 sequence (Q96SW2 whole entry): as the sequence (Q96SW2 whole entry) above
T4 sequence (Q16531 whole entry partner): as the sequence (Q16531 whole entry partner) above

WEE1 = biological target: T5, WEE1 (Homo sapiens, UniProt P30291+Q96SW2); assay: Western-blot assay, substrate protein degradation in hPBMCs: WEE1; details: for WEE1 substrate protein remaining %: compounds at 50 nM and 500 nM, 24 hours; for substrate protein remaining % WEE1: 24 hours of compound treatment, 50 nM and 500 nM
T5 construct: effects of the compounds of the present disclosure on the expression of target proteins in cells; endogenous in cells; host or cells: human PBMCs (hPBMCs)

CK1α = biological target: T6, CK1α (Homo sapiens, UniProt P48729+Q96SW2); assay: Western-blot assay, substrate protein degradation in hPBMCs: CK1α; details: for CK1α substrate protein remaining %: compounds at 50 nM and 500 nM, 24 hours; for substrate protein remaining % CK1α: 24 hours of compound treatment, 50 nM and 500 nM
T6 construct: effects of the compounds of the present disclosure on the expression of target proteins in cells; endogenous in cells; host or cells: human PBMCs (hPBMCs)
T6 sequence (P48729 whole entry): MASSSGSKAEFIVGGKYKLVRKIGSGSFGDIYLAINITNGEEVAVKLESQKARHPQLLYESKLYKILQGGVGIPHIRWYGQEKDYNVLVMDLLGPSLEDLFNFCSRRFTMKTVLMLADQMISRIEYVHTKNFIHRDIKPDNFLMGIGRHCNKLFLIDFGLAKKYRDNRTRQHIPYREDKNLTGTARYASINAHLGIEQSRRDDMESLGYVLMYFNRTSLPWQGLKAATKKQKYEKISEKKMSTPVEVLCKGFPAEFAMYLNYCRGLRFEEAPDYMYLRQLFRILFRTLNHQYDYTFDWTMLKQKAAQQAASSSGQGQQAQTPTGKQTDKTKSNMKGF
T6 sequence (Q96SW2 whole entry): as the sequence (Q96SW2 whole entry) above
T6 sequence (Q16531 whole entry partner): as the sequence (Q16531 whole entry partner) above

Structure (SMILES)	IKZF3 substrate protein remaining % (IKZF3)	IKZF2 substrate protein remaining % (IKZF2)	GSPT1 substrate protein remaining % (GSPT1)	IKZF1 substrate protein remaining % (IKZF1)	WEE1 substrate protein remaining % (WEE1)	CK1α substrate protein remaining % (CK1α)	substrate protein remaining % IKZF3 (IKZF3)	substrate protein remaining % IKZF2 (IKZF2)	substrate protein remaining % GSPT1 (GSPT1)	substrate protein remaining % IKZF1 (IKZF1)	substrate protein remaining % WEE1 (WEE1)	substrate protein remaining % CK1α (CK1α)
O=C1CCN(N2C(=O)c3ccc(CN4CCN(C(c5ccccn5)c5ccccn5)CC4)cc3C2=O)C(=O)N1 [GT-06379, 5-((4-(di(pyridin-2-yl)methyl)piperazin-1-yl)methyl)-2-(2,4-dioxotetrahydropyrimidin-1(2H)-yl)isoindoline-1,3-dione]	A ("A" is defined as 0% ≤ substrate protein remaining % ≤ 80%)	A ("A" is defined as 0% ≤ substrate protein remaining % ≤ 80%)	A ("A" is defined as 0% ≤ substrate protein remaining % ≤ 80%)	B ("B" is defined as 80%< substrate protein remaining %≤ 100%)	A ("A" is defined as 0% ≤ substrate protein remaining % ≤ 80%)	B ("B" is defined as 80%< substrate protein remaining %≤ 100%)	–	–	–	–	–	–
O=C1CCN(N2C(=O)c3ccc(CN4CCC(n5c(=O)[nH]c6cc(F)ccc65)CC4)cc3C2=O)C(=O)N1 [GT-07583, 2-(2,4-dioxotetrahydropyrimidin-1(2H)-yl)-5-((4-(5-fluoro-2-oxo-2,3-dihydro-1H-benzo[d]imidazol-1-yl)piperidin-1-yl)methyl)isoindoline-1,3-dione]	–	–	–	–	–	–	B (80%< substrate protein remaining %≤ 100%)	B (80%< substrate protein remaining %≤ 100%)	A (0% ≤ substrate protein remaining % ≤ 80%)	B (80%< substrate protein remaining %≤ 100%)	A (0% ≤ substrate protein remaining % ≤ 80%)	B (80%< substrate protein remaining %≤ 100%)
Cc1cc(N2CCN(Cc3ccc4c(c3)CN(N3CCC(=O)NC3=O)C4=O)CC2)cs1 [GT-05087, 1-(5-((4-(5-methylthiophen-3-yl)piperazin-1-yl)methyl)-1-oxoisoindolin-2-yl)dihydropyrimidine-2,4(1H,3H)-dione]	B ("B" is defined as 80%< substrate protein remaining %≤ 100%)	B ("B" is defined as 80%< substrate protein remaining %≤ 100%)	A ("A" is defined as 0% ≤ substrate protein remaining % ≤ 80%)	B ("B" is defined as 80%< substrate protein remaining %≤ 100%)	B ("B" is defined as 80%< substrate protein remaining %≤ 100%)	B ("B" is defined as 80%< substrate protein remaining %≤ 100%)	–	–	–	–	–	–
CC1(C)CCC(CN2CC3CCC(C2)N3Cc2ccc3c(c2)CN(N2CCC(=O)NC2=O)C3=O)=C(c2ccc(Cl)cc2)C1 [GT-07330, 1-(5-((3-((4'-chloro-5,5-dimethyl-3,4,5,6-tetrahydro-[1,1'-biphenyl]-2-yl)methyl)-3,8-diazabicyclo[3.2.1]octan-8-yl)methyl)-1-oxoisoindolin-2-yl)dihydropyrimidine-2,4(1H,3H)-dione]	–	–	–	–	–	–	A (0% ≤ substrate protein remaining % ≤ 80%)	A (0% ≤ substrate protein remaining % ≤ 80%)	A (0% ≤ substrate protein remaining % ≤ 80%)	A (0% ≤ substrate protein remaining % ≤ 80%)	A (0% ≤ substrate protein remaining % ≤ 80%)	B (80%< substrate protein remaining %≤ 100%)
O=C1CCN(N2C(=O)c3ccc(CN4CCN(c5ncncn5)CC4)cc3C2=O)C(=O)N1 [GT-07037, 5-((4-(1,3,5-triazin-2-yl)piperazin-1-yl)methyl)-2-(2,4-dioxotetrahydropyrimidin-1(2H)-yl)isoindoline-1,3-dione]	B ("B" is defined as 80%< substrate protein remaining %≤ 100%)	B ("B" is defined as 80%< substrate protein remaining %≤ 100%)	A ("A" is defined as 0% ≤ substrate protein remaining % ≤ 80%)	B ("B" is defined as 80%< substrate protein remaining %≤ 100%)	B ("B" is defined as 80%< substrate protein remaining %≤ 100%)	B ("B" is defined as 80%< substrate protein remaining %≤ 100%)	–	–	–	–	–	–
CC1CN(Cc2ccc3c(c2)C(=O)N(N2CCC(=O)NC2=O)C3=O)CC(C)N1C(c1ccccc1)c1ccccc1 (stereo not drawn) [GT-06430, 5-((4-benzhydryl-3,5-dimethylpiperazin-1-yl)methyl)-2-(2,4-dioxotetrahydropyrimidin-1(2H)-yl)isoindoline-1,3-dione]	A ("A" is defined as 0% ≤ substrate protein remaining % ≤ 80%)	B ("B" is defined as 80%< substrate protein remaining %≤ 100%)	A ("A" is defined as 0% ≤ substrate protein remaining % ≤ 80%)	A ("A" is defined as 0% ≤ substrate protein remaining % ≤ 80%)	A ("A" is defined as 0% ≤ substrate protein remaining % ≤ 80%)	B ("B" is defined as 80%< substrate protein remaining %≤ 100%)	–	–	–	–	–	–
O=C1CCN(N2Cc3cc(CN4C5CC4CN(C(=O)C4=C(c6ccc(F)cc6)CCCC4)C5)ccc3C2=O)C(=O)N1 [GT-07376, 1-(5-((3-(4'-fluoro-3,4,5,6-tetrahydro-[1,1'-biphenyl]-2-carbonyl)-3,6-diazabicyclo[3.1.1]heptan-6-yl)methyl)-1-oxoisoindolin-2-yl)dihydropyrimidine-2,4(1H,3H)-dione]	–	–	–	–	–	–	B (80%< substrate protein remaining %≤ 100%)	B (80%< substrate protein remaining %≤ 100%)	B (80%< substrate protein remaining %≤ 100%)	B (80%< substrate protein remaining %≤ 100%)	A (0% ≤ substrate protein remaining % ≤ 80%)	B (80%< substrate protein remaining %≤ 100%)
CC1CN(Cc2ccc3c(c2)CN(N2CCC(=O)NC2=O)C3=O)CC(C)N1C(c1ccccc1)c1ccccc1 (stereo not drawn) [GT-06431, 1-(5-((4-benzhydryl-3,5-dimethylpiperazin-1-yl)methyl)-1-oxoisoindolin-2-yl)dihydropyrimidine-2,4(1H,3H)-dione]	B ("B" is defined as 80%< substrate protein remaining %≤ 100%)	A ("A" is defined as 0% ≤ substrate protein remaining % ≤ 80%)	A ("A" is defined as 0% ≤ substrate protein remaining % ≤ 80%)	A ("A" is defined as 0% ≤ substrate protein remaining % ≤ 80%)	A ("A" is defined as 0% ≤ substrate protein remaining % ≤ 80%)	B ("B" is defined as 80%< substrate protein remaining %≤ 100%)	–	–	–	–	–	–
O=C1CCN(N2C(=O)c3ccc(CN4CCN(c5ccsc5)CC4)cc3C2=O)C(=O)N1 [GT-05313, 2-(2,4-dioxotetrahydropyrimidin-1(2H)-yl)-5-((4-(thiophen-3-yl)piperazin-1-yl)methyl)isoindoline-1,3-dione]	B ("B" is defined as 80%< substrate protein remaining %≤ 100%)	B ("B" is defined as 80%< substrate protein remaining %≤ 100%)	A ("A" is defined as 0% ≤ substrate protein remaining % ≤ 80%)	B ("B" is defined as 80%< substrate protein remaining %≤ 100%)	B ("B" is defined as 80%< substrate protein remaining %≤ 100%)	B ("B" is defined as 80%< substrate protein remaining %≤ 100%)	–	–	–	–	–	–
O=C1CCN(N2Cc3cc(CN4CCC(c5ccccc5Cl)CC4)ccc3C2=O)C(=O)N1 [GT-06887, 1-(5-((4-(2-chlorophenyl)piperidin-1-yl)methyl)-1-oxoisoindolin-2-yl)dihydropyrimidine-2,4(1H,3H)-dione]	B ("B" is defined as 80%< substrate protein remaining %≤ 100%)	A ("A" is defined as 0% ≤ substrate protein remaining % ≤ 80%)	A ("A" is defined as 0% ≤ substrate protein remaining % ≤ 80%)	B ("B" is defined as 80%< substrate protein remaining %≤ 100%)	A ("A" is defined as 0% ≤ substrate protein remaining % ≤ 80%)	B ("B" is defined as 80%< substrate protein remaining %≤ 100%)	–	–	–	–	–	–
Cc1ccc(N2CCN(Cc3ccc4c(c3)CN(N3CCC(=O)NC3=O)C4=O)CC2)c(C)c1 [GT-06882, 1-(5-((4-(2,4-dimethylphenyl)piperazin-1-yl)methyl)-1-oxoisoindolin-2-yl)dihydropyrimidine-2,4(1H,3H)-dione]	B ("B" is defined as 80%< substrate protein remaining %≤ 100%)	B ("B" is defined as 80%< substrate protein remaining %≤ 100%)	A ("A" is defined as 0% ≤ substrate protein remaining % ≤ 80%)	A ("A" is defined as 0% ≤ substrate protein remaining % ≤ 80%)	A ("A" is defined as 0% ≤ substrate protein remaining % ≤ 80%)	B ("B" is defined as 80%< substrate protein remaining %≤ 100%)	–	–	–	–	–	–
